Holding throughout (format): in vivo
Test [1] relates to Spodoptera littoralis (Egyptian Cotton Leaf Worm). The experiment in a line: Spodoptera littoralis cotton leaf disc spray test. To be noted: foliar, 72 h, application rate 200 ppm, L1 larvae, 3 days after infestation, read-out: control (at least one of mortality, anti-feedant effect, growth inhibition). The method, then:
Spodoptera littoralis (Egyptian Cotton Leaf Worm)
Cotton leaf discs were placed on agar in 24-well microtiter plates and sprayed with aqueous test solutions prepared from 10,000 ppm DMSO stock solutions. After drying, the leaf discs were infested with five L1 larvae. The samples were assessed for mortality, anti-feedant effect, and growth inhibition in comparison to untreated samples 3 days after infestation. Control of Spodoptera littoralis by a test sample is when at least one of mortality, anti-feedant effect, and growth inhibition is higher than the untreated sample.

Test [2] has as its system Plutella xylostella (Diamond Back Moth). The experiment in a line: whole plant or invertebrate. The following applies: 120 h, application rate 200 ppm, L2 larvae, 5 days after infestation, read-out: effect in at least one of the two categories (mortality or growth inhibition). How it is done: Example B2: Plutella xylostella (Diamond Back Moth)
24-well microtiter plates with artificial diet were treated with aqueous test solutions prepared from 10,000 ppm DMSO stock solutions by pipetting. After drying, the plates were infested with L2 larvae (10 to 15 per well). The samples were assessed for mortality and growth inhibition in comparison to untreated samples 5 days after infestation.

Test [3] relates to Diabrotica Balteata (Corn Root Worm). The experiment in a line: whole plant or invertebrate. To be noted: 96 h, application rate 200 ppm, L2 larvae, 4 days after infestation, read-out: effect in at least one of the two categories (mortality or growth inhibition). The method, then:
Example B3: Diabrotica Balteata (Corn Root Worm)
Maize sprouts, placed on an agar layer in 24-well microtiter plates were treated with aqueous test solutions prepared from 10,000 ppm DMSO stock solutions by spraying. After drying, the plates were infested with L2 larvae (6 to 10 per well). The samples were assessed for mortality and growth inhibition in comparison to untreated samples 4 days after infestation.

Each structure is given as a SMILES string. Bounds are passed on as bounds.

`Fc1ccccc1-n1nc(-c2ccc(Cl)cc2)nc1CN1CCC(c2ncccn2)CC1` [Example 1.1, 2-[1-[[5-(4-chlorophenyl)-2-(2-fluorophenyl)-1,2,4-triazol-3-yl]methyl]-4-piperidyl]pyrimidine]: the percent control (mortality, anti-feedant effect or growth inhibition) at 200 ppm in test [1] was not below 80%. Further, the percent effect (mortality or growth inhibition) at 200 ppm in test [2] and in test [3] was not below 80% in each case.
In the case of `Fc1ccccc1-n1nc(-c2ccc(Cl)cn2)nc1CN1CCC(c2ncccn2)CC1` [Example 1.4], the percent control (mortality, anti-feedant effect or growth inhibition) at 200 ppm in test [1] is not below 80%. Also, the percent effect (mortality or growth inhibition) at 200 ppm in test [2] and in test [3] was not below 80% each time.
Take `Fc1ccccc1-n1nc(-c2ccc(Cl)c(Cl)c2)nc1CN1CCC(c2ncccn2)CC1` [Example 1.20]: the percent control (mortality, anti-feedant effect or growth inhibition) at 200 ppm in test [1] was not below 80%. Also, the percent effect (mortality or growth inhibition) at 200 ppm in test [2] and in test [3] was not below 80% in each case.
For the compound `Fc1cccc(F)c1-n1nc(-c2ccc(C(F)(F)F)cc2)nc1CN1CCC(c2ncccn2)CC1` [Example 1.21], in test [1], the percent control (mortality, anti-feedant effect or growth inhibition) at 200 ppm is not below 80%. Moreover, the percent effect (mortality or growth inhibition) at 200 ppm in test [2] and in test [3] was not below 80% throughout.
On to `Fc1ccccc1-n1nc(-c2ccc(C(F)(F)F)cc2)nc1CN1CCC(c2ncccn2)CC1` [Example 1.26], for which the percent control (mortality, anti-feedant effect or growth inhibition) at 200 ppm in test [1] is not below 80%. The percent effect (mortality or growth inhibition) at 200 ppm in test [2] and in test [3] was not below 80% each time.
`Fc1ccc(-c2nc(CN3CCC(c4ncccn4)CC3)n(-c3ccc(F)cc3)n2)cc1` [Example 1.29]: the percent control (mortality, anti-feedant effect or growth inhibition) at 200 ppm in test [1] was not below 80%. The percent effect (mortality or growth inhibition) at 200 ppm in test [2] and in test [3] was not below 80% each time.
Take `Fc1ccc(-n2nc(-c3ccc(Cl)cc3)nc2CN2CCC(c3ncccn3)CC2)c(F)c1` [Example 1.30]: the percent control (mortality, anti-feedant effect or growth inhibition) at 200 ppm in test [1] is not below 80%. The percent effect (mortality or growth inhibition) at 200 ppm in test [2] and in test [3] was not below 80% in each case.
For `CC1(C)CCN(Cc2nc(-c3ccc(Cl)cc3)nn2-c2ccccc2F)CC1` [Example 1.35], in test [1], the percent control (mortality, anti-feedant effect or growth inhibition) at 200 ppm was not below 80%. Also, the percent effect (mortality or growth inhibition) at 200 ppm in test [2] and in test [3] was not below 80% throughout.
On to `Fc1ccccc1-n1nc(-c2cccc(C(F)(F)F)c2)nc1CN1CCC(c2ncccn2)CC1` [Example 1.38], for which the percent control (mortality, anti-feedant effect or growth inhibition) at 200 ppm in test [1] is not below 80%. For the same compound, the percent effect (mortality or growth inhibition) at 200 ppm in test [2] and in test [3] was not below 80% throughout.
On to `Fc1ccccc1-n1nc(-c2ccc(Cl)cc2)nc1CN1CCC(c2ccccc2)CC1` [Example 1.43], for which the percent control (mortality, anti-feedant effect or growth inhibition) at 200 ppm in test [1] is not below 80%. Also, the percent effect (mortality or growth inhibition) at 200 ppm in test [2] and in test [3] was not below 80% each time.
Take `CC1CCN(Cc2nc(-c3ccc(Cl)cc3)nn2-c2ccccc2F)CC1` [Example 1.46]: the percent control (mortality, anti-feedant effect or growth inhibition) at 200 ppm in test [1] is not below 80%. Also, the percent effect (mortality or growth inhibition) at 200 ppm in test [2] and in test [3] was not below 80% each time.
In the case of `Clc1ccc(-c2nc(CN3CCC(c4ncccn4)CC3)n(-c3cccc(Cl)c3Cl)n2)cc1` [Example 1.55], the percent control (mortality, anti-feedant effect or growth inhibition) at 200 ppm in test [1] was not below 80%. Besides, the percent effect (mortality or growth inhibition) at 200 ppm in test [2] and in test [3] was not below 80% in each case.
For the compound `Clc1ccc(-c2nc(CN3CCC(c4ncccn4)CC3)n(Cc3ccccc3)n2)cc1` [Example 1.56], the percent control (mortality, anti-feedant effect or growth inhibition) at 200 ppm in test [1] is not below 80%. The percent effect (mortality or growth inhibition) at 200 ppm in test [2] and in test [3] was not below 80% in each case.
Take `Clc1ccc(-c2nc(CN3CCC(c4ncccn4)CC3)n(-c3ccccc3)n2)cc1` [Example 1.61]: the percent control (mortality, anti-feedant effect or growth inhibition) at 200 ppm in test [1] is not below 80%. Moreover, the percent effect (mortality or growth inhibition) at 200 ppm in test [2] and in test [3] was not below 80% throughout.
As to `Cc1ccccc1-n1nc(-c2ccc(Cl)cc2)nc1CN1CCC(c2ncccn2)CC1` [Example 1.62], in test [1], the percent control (mortality, anti-feedant effect or growth inhibition) at 200 ppm is not below 80%. Besides, the percent effect (mortality or growth inhibition) at 200 ppm in test [2] and in test [3] was not below 80% each time.
`Clc1ccc(-c2nc(CN3CCC(c4ncccn4)CC3)n(-c3ccc(Cl)cc3)n2)cc1` [Example 1.66]: in test [1], the percent control (mortality, anti-feedant effect or growth inhibition) at 200 ppm was not below 80%. The percent effect (mortality or growth inhibition) at 200 ppm in test [2] and in test [3] was not below 80% in each case.
In the case of `COc1ccccc1-n1nc(-c2ccc(Cl)cc2)nc1CN1CCC(c2ncccn2)CC1` [Example 1.70], the percent control (mortality, anti-feedant effect or growth inhibition) at 200 ppm in test [1] is not below 80%. Besides, the percent effect (mortality or growth inhibition) at 200 ppm in test [2] and in test [3] was not below 80% each time.
As to `Clc1ccc(-c2nc(CN3CCC(c4ncccn4)CC3)n(-c3ccc(Br)cc3)n2)cc1` [Example 1.76], the percent control (mortality, anti-feedant effect or growth inhibition) at 200 ppm in test [1] is not below 80%. Moreover, the percent effect (mortality or growth inhibition) at 200 ppm in test [2] and in test [3] was not below 80% each time.
With `Clc1ccc(-c2nc(CN3CCC(c4ncccn4)CC3)n(-c3c(Cl)cc(Cl)cc3Cl)n2)cc1` [Example 1.77], the percent control (mortality, anti-feedant effect or growth inhibition) at 200 ppm in test [1] is not below 80%. Further, the percent effect (mortality or growth inhibition) at 200 ppm in test [2] and in test [3] was not below 80% throughout.
As to `Clc1ccc(-c2nc(CN3CCC(c4ncccn4)CC3)n(-c3ccccn3)n2)cc1` [Example 1.78], in test [1], the percent control (mortality, anti-feedant effect or growth inhibition) at 200 ppm was not below 80%. Moreover, the percent effect (mortality or growth inhibition) at 200 ppm in test [2] and in test [3] was not below 80% throughout.
For `Fc1cccc(-n2nc(-c3ccc(Cl)cc3)nc2CN2CCC(c3ncccn3)CC2)c1` [Example 1.80], in test [1], the percent control (mortality, anti-feedant effect or growth inhibition) at 200 ppm is not below 80%. The percent effect (mortality or growth inhibition) at 200 ppm in test [2] and in test [3] was not below 80% in each case.
As to `Clc1ccc(-c2nc(CN3CCC(c4ncccn4)CC3)n(-c3ccccc3Cl)n2)cc1` [Example 1.83], the percent control (mortality, anti-feedant effect or growth inhibition) at 200 ppm in test [1] was not below 80%. Moreover, the percent effect (mortality or growth inhibition) at 200 ppm in test [2] and in test [3] was not below 80% each time.
Consider `Cc1c(Cl)cccc1-n1nc(-c2ccc(Cl)cc2)nc1CN1CCC(c2ncccn2)CC1` [Example 1.84], for which, in test [1], the percent control (mortality, anti-feedant effect or growth inhibition) at 200 ppm was not below 80%. The percent effect (mortality or growth inhibition) at 200 ppm in test [2] and in test [3] was not below 80% throughout.
For `Cc1cc(Cl)ccc1-n1nc(-c2ccc(Cl)cc2)nc1CN1CCC(c2ncccn2)CC1` [Example 1.85], the percent control (mortality, anti-feedant effect or growth inhibition) at 200 ppm in test [1] is not below 80%. The percent effect (mortality or growth inhibition) at 200 ppm in test [2] and in test [3] was not below 80% each time.
In the case of `Cc1nccc(C2CCN(Cc3nc(-c4ccc(Cl)cc4)nn3-c3ccccc3F)CC2)n1` [Example 1.110], the percent control (mortality, anti-feedant effect or growth inhibition) at 200 ppm in test [1] is not below 80%. Moreover, the percent effect (mortality or growth inhibition) at 200 ppm in test [2] and in test [3] was not below 80% in each case.
On to `Fc1ccccc1-n1nc(-c2ccc(Cl)cc2)nc1CN1CCC(c2ccon2)CC1` [Example 1.120], for which, in test [1], the percent control (mortality, anti-feedant effect or growth inhibition) at 200 ppm is not below 80%. In addition, the percent effect (mortality or growth inhibition) at 200 ppm in test [2] and in test [3] was not below 80% throughout.
`Fc1ccc(C2CCN(Cc3nc(-c4ccc(Cl)cc4)nn3-c3ccccc3F)CC2)nc1` [Example 1.122]: the percent control (mortality, anti-feedant effect or growth inhibition) at 200 ppm in test [1] was not below 80%. Besides, the percent effect (mortality or growth inhibition) at 200 ppm in test [2] and in test [3] was not below 80% throughout.
For the compound `Fc1ccccc1-n1nc(-c2ccc(Cl)cc2)nc1CN1CCC(c2ncccc2Cl)CC1` [Example 1.126], the percent control (mortality, anti-feedant effect or growth inhibition) at 200 ppm in test [1] is not below 80%. For the same compound, the percent effect (mortality or growth inhibition) at 200 ppm in test [2] and in test [3] was not below 80% in each case.
As to `Fc1ccccc1-n1nc(-c2ccc(Cl)cc2)nc1CN1CCC(c2ncccn2)C1` (centres unmarked) [Example 5.7], the percent effect (mortality or growth inhibition) at 200 ppm in test [2] and in test [3] was not below 80% in each case.
In the case of `COC[C@@H]1CCCN1Cc1nc(-c2ccc(Cl)cc2)nn1-c1ccccc1F` [Example 5.28], the percent control (mortality, anti-feedant effect or growth inhibition) at 200 ppm in test [1] is not below 80%. For the same compound, the percent effect (mortality or growth inhibition) at 200 ppm in test [2] and in test [3] was not below 80% throughout.

Source of the values: patent US20190161499A1, “PESTICIDALLY ACTIVE 1,2,4-TRIAZOLE DERIVATIVES” (SYNGENTA PARTICIPATIONS AG, priority 2015, published 2019).
